Results: ChEMBL document CHEMBL4308841, “Synthesis, in vitro antiproliferative activity, and kinase inhibitory effects of pyrazole-containing diarylureas and diarylamides” (Eur J Med Chem, 2018)

Legend:
HL-60(TB) = test: Growth inhibition of human HL-60(TB) cells assessed as cell growth at 10 uM incubated for 48 hrs by sulforhodamine B assay relative to control; type: functional; conditions: HL-60, 48 h, read-out: Activity
K562 = test: Growth inhibition of human K562 cells assessed as cell growth at 10 uM incubated for 48 hrs by sulforhodamine B assay relative to control; type: functional; conditions: K562, 48 h, read-out: Activity
RPMI-8226 = test: Growth inhibition of human RPMI8226 cells assessed as cell growth at 10 uM incubated for 48 hrs by sulforhodamine B assay relative to control; type: functional; conditions: RPMI-8226, 48 h, read-out: Activity
SR = test: Growth inhibition of human SR cells assessed as cell growth at 10 uM incubated for 48 hrs by sulforhodamine B assay relative to control; type: functional; conditions: read-out: Activity
HOP-62 = test: Growth inhibition of human HOP62 cells assessed as cell growth at 10 uM incubated for 48 hrs by sulforhodamine B assay relative to control; type: functional; conditions: HOP-62, 48 h, read-out: Activity
HCC 2998 [1] = test: Growth inhibition of human HCC2998 cells assessed as cell growth at 10 uM incubated for 48 hrs by sulforhodamine B assay relative to control; type: functional; conditions: HCC 2998, 48 h, read-out: Activity
HCT-15 = test: Growth inhibition of human HCT15 cells assessed as cell growth at 10 uM incubated for 48 hrs by sulforhodamine B assay relative to control; type: functional; conditions: HCT-15, 48 h, read-out: Activity
SF-268 = test: Growth inhibition of human SF268 cells assessed as cell growth at 10 uM incubated for 48 hrs by sulforhodamine B assay relative to control; type: functional; conditions: SF-268, 48 h, read-out: Activity
SF-295 = test: Growth inhibition of human SF295 cells assessed as cell growth at 10 uM incubated for 48 hrs by sulforhodamine B assay relative to control; type: functional; conditions: SF-295, 48 h, read-out: Activity
SNB-19 = test: Growth inhibition of human SNB19 cells assessed as cell growth at 10 uM incubated for 48 hrs by sulforhodamine B assay relative to control; type: functional; conditions: SNB-19, 48 h, read-out: Activity
LOX IMVI = test: Growth inhibition of human LOXIMVI cells assessed as cell growth at 10 uM incubated for 48 hrs by sulforhodamine B assay relative to control; type: functional; conditions: read-out: Activity
Malme-3M = test: Growth inhibition of human MALME-3M cells assessed as cell growth at 10 uM incubated for 48 hrs by sulforhodamine B assay relative to control; type: functional; conditions: read-out: Activity
M14 [2] = test: Growth inhibition of human M14 cells assessed as cell growth at 10 uM incubated for 48 hrs by sulforhodamine B assay relative to control; type: functional; conditions: M14, 48 h, read-out: Activity
MDA-MB-435 = test: Growth inhibition of human MDA-MB-435 cells assessed as cell growth at 10 uM incubated for 48 hrs by sulforhodamine B assay relative to control; type: functional; conditions: MDA-MB-435, 48 h, read-out: Activity
UACC-257 = test: Growth inhibition of human UACC257 cells assessed as cell growth at 10 uM incubated for 48 hrs by sulforhodamine B assay relative to control; type: functional; conditions: UACC-257, 48 h, read-out: Activity
OVCAR-4 [3] = test: Growth inhibition of human OVCAR4 cells assessed as cell growth at 10 uM incubated for 48 hrs by sulforhodamine B assay relative to control; type: functional; conditions: OVCAR-4, 48 h, read-out: Activity
OVCAR-8 = test: Growth inhibition of human OVCAR8 cells assessed as cell growth at 10 uM incubated for 48 hrs by sulforhodamine B assay relative to control; type: functional; conditions: OVCAR-8, 48 h, read-out: Activity
NCI/ADR-RES = test: Growth inhibition of human NCI/ADR-RES cells assessed as cell growth at 10 uM incubated for 48 hrs by sulforhodamine B assay relative to control; type: functional; conditions: read-out: Activity
SK-OV-3 = test: Growth inhibition of human SKOV3 cells assessed as cell growth at 10 uM incubated for 48 hrs by sulforhodamine B assay relative to control; type: functional; conditions: SK-OV-3, 48 h, read-out: Activity
Hs-578T = test: Growth inhibition of human Hs578T cells assessed as cell growth at 10 uM incubated for 48 hrs by sulforhodamine B assay relative to control; type: functional; conditions: read-out: Activity
MDA-MB-468 [4] = test: Growth inhibition of human MDA-MB-468 cells assessed as cell growth at 10 uM incubated for 48 hrs by sulforhodamine B assay relative to control; type: functional; conditions: MDA-MB-468, 48 h, read-out: Activity
HCC 2998 [5] = test: Growth inhibition of human HCC2998 cells incubated for 48 hrs by sulforhodamine B assay; type: functional, cell-based; conditions: HCC 2998, 48 h
U-251 [6] = test: Growth inhibition of human U251 cells incubated for 48 hrs by sulforhodamine B assay; type: functional, cell-based; conditions: U-251, 48 h
OVCAR-4 [7] = test: Growth inhibition of human OVCAR4 cells incubated for 48 hrs by sulforhodamine B assay; type: functional, cell-based; conditions: OVCAR-4, 48 h
ACHN [8] = test: Growth inhibition of human ACHN cells incubated for 48 hrs by sulforhodamine B assay; type: functional, cell-based
M14 [9] = test: Growth inhibition of human M14 cells assessed as cell growth at 0.01 uM incubated for 48 hrs by sulforhodamine B assay relative to control; type: functional; conditions: M14, 48 h, read-out: Activity
UO-31 = test: Growth inhibition of human UO31 cells assessed as cell growth at 0.01 uM incubated for 48 hrs by sulforhodamine B assay relative to control; type: functional; conditions: UO-31, 48 h, read-out: Activity
UACC-62 = test: Growth inhibition of human UACC62 cells assessed as cell growth at 0.1 uM incubated for 48 hrs by sulforhodamine B assay relative to control; type: functional; conditions: UACC-62, 48 h, read-out: Activity
U-251 [10] = test: Growth inhibition of human U251 cells assessed as cell growth at 1 uM incubated for 48 hrs by sulforhodamine B assay relative to control; type: functional; conditions: U-251, 48 h, read-out: Activity
ACHN [11] = test: Growth inhibition of human ACHN cells assessed as cell growth at 100 uM incubated for 48 hrs by sulforhodamine B assay relative to control; type: functional; conditions: read-out: Activity
MDA-MB-468 [12] = test: Growth inhibition of human MDA-MB-468 cells assessed as cell growth at 100 uM incubated for 48 hrs by sulforhodamine B assay relative to control; type: functional; conditions: MDA-MB-468, 48 h, read-out: Activity
[13] = read-out: LC50 (the source's name)
[14] = read-out: pLC50 (the source's name) (converted)

COc1cc(Cl)cc(-c2nn(-c3cccc(NC(=O)Nc4ccc(Cl)c(C(F)(F)F)c4)c3)cc2-c2ccncc2)c1
growth at 10 µM (HL-60(TB)): -9.59%
growth at 10 µM (K562): 8.93%
growth at 10 µM (RPMI-8226): -29.1%
growth at 10 µM (SR): -27.5%
growth at 10 µM (HOP-62): 13.5%
growth at 10 µM (HCC 2998 [1]): 18.1%
growth at 10 µM (HCT-15): 7.28%
growth at 10 µM (SF-268): 22.9%
growth at 10 µM (SF-295): -7.48%
growth at 10 µM (SNB-19): 28.1%
growth at 10 µM (LOX IMVI): 4.81%
growth at 10 µM (Malme-3M): -19.8%
growth at 10 µM (M14 [2]): 3.99%
growth at 10 µM (MDA-MB-435): -16.8%
growth at 10 µM (UACC-257): -25.9%
growth at 10 µM (OVCAR-4 [3]): 16.6%
growth at 10 µM (OVCAR-8): 8.71%
growth at 10 µM (NCI/ADR-RES): 6.07%
growth at 10 µM (SK-OV-3): 11.9%
growth at 10 µM (Hs-578T): 14.6%
growth at 10 µM (MDA-MB-468 [4]): -14.4%
GI50 (HCC 2998 [5]; read-out: GI50): 2.91 µM
CC50 (HCC 2998 [5]; [13]): 4.41 µM
TGI (HCC 2998 [5]; read-out: TGI): 90.2 µM
GI50 (HCC 2998 [5]; read-out: pGI50 (converted)): 2.88 µM
CC50 (HCC 2998 [5]; [14]): 43.7 µM
TGI (HCC 2998 [5]; read-out: pTGI (converted)): 9.12 µM
IC50 (U-251 [6]): 0.73 µM
GI50 (U-251 [6]; read-out: GI50): 0.729 µM
CC50 (U-251 [6]; [13]): 5 µM
TGI (U-251 [6]; read-out: TGI): 21.1 µM
GI50 (U-251 [6]; read-out: pGI50 (converted)): 0.724 µM
CC50 (U-251 [6]; [14]): 5.01 µM
TGI (U-251 [6]; read-out: pTGI (converted)): 2.09 µM
GI50 (OVCAR-4 [7]; read-out: GI50): 1.53 µM
CC50 (OVCAR-4 [7]; [13]): > 100 µM
TGI (OVCAR-4 [7]; read-out: TGI): 25.5 µM
GI50 (OVCAR-4 [7]; read-out: pGI50 (converted)): 1.82 µM
CC50 (OVCAR-4 [7]; [14]): > 100 µM
TGI (OVCAR-4 [7]; read-out: pTGI (converted)): 2.63 µM
GI50 (ACHN [8]; read-out: GI50): 0.752 µM
CC50 (ACHN [8]; [13]): > 100 µM
TGI (ACHN [8]; read-out: TGI): 10.2 µM
GI50 (ACHN [8]; read-out: pGI50 (converted)): 0.759 µM
CC50 (ACHN [8]; [14]): > 100 µM
TGI (ACHN [8]; read-out: pTGI (converted)): 14.5 µM
growth at 0.01 µM (M14 [9]): 97%
growth at 0.01 µM (UO-31): 91%
growth at 0.1 µM (UACC-62): 93%
growth at 1 µM (U-251 [10]): 43%
growth at 100 µM (ACHN [11]): -31%
growth at 100 µM (MDA-MB-468 [12]): -27%

COc1cc(Cl)cc(-c2nn(-c3cccc(NC(=O)c4ccc(Cl)c(Cl)c4)c3)cc2-c2ccncc2)c1
growth at 10 µM (HL-60(TB)): 94.1%
growth at 10 µM (K562): 46.4%
growth at 10 µM (RPMI-8226): 46%
growth at 10 µM (SR): 43.6%
growth at 10 µM (HOP-62): 105%
growth at 10 µM (HCC 2998 [1]): 77.8%
growth at 10 µM (HCT-15): 57.9%
growth at 10 µM (SF-268): 82.4%
growth at 10 µM (SF-295): 36.1%
growth at 10 µM (SNB-19): 71.5%
growth at 10 µM (LOX IMVI): 72.8%
growth at 10 µM (Malme-3M): 96.4%
growth at 10 µM (M14 [2]): 68.9%
growth at 10 µM (MDA-MB-435): 80.8%
growth at 10 µM (UACC-257): 84.2%
growth at 10 µM (OVCAR-4 [3]): 58.6%
growth at 10 µM (OVCAR-8): 58.4%
growth at 10 µM (NCI/ADR-RES): 61.4%
growth at 10 µM (SK-OV-3): 80.1%
growth at 10 µM (Hs-578T): 63.6%
growth at 10 µM (MDA-MB-468 [4]): 54.6%
